# Results: patent publication US9220411B2, “In-vivo optical imaging method including analysis of dynamic images” (THE GENERAL HOSPITAL CORPORATION, priority 2006, dated 2015)
# Assay: Dynamic in-vivo fluorescence imaging of dye biodistribution after tail vein injection
# Set-up: species or system mouse
# From the text: FIG. 1 illustrates one embodiment of a fluorescent dynamic optical imaging system 10 for imaging small animals such as mice. The imaging system 10 includes an optical detector 16 which is operable to acquire various images of the mouse. The imaging system 10 also includes a processor and display device 11 which is operable to generate and display other images of the mouse.
# The system 10 also includes an imaging platform 12 for supporting a mouse in a desired arrangement, such as in a prone position or a supine position. In a preferred embodiment, mirrors 14 are arranged at 45 degree angles with respect to the imaging platform such that multiple views of the mouse, i.e., a top and/or bottom view, and side views of the mouse, are within the field of view of the optical detector 16, which is arranged above the imaging platform 12. Other embodiments can include other arrangements of optical detector 16 and mirrors to provide other views of the mouse. In one embodiment, the optical detector 16 is a cooled 14 bit charge coupled device (CCD) camera including a relay lens 19 and the field of view is approximately 9 cm by 9 cm. Thus, although the camera produces 2D images, these are “enhanced” 2D images since multiple views of the mouse are obtained.
# Bifurcated liquid light guides 25 can be used to deliver light from the sources 18A, 18B to shine on the mouse. Other means can also be used. The light sources 18A, 18B and any corresponding filter elements are selected to have desired characteristics according to the optical contrast substances to be used in the imaging process. For example, when using a fluorescent dye such as indocyanine green (ICG) dye, light source 18A can include two laser diodes (160 mW total) to provide excitation light at 785 nm to excite the ICG dye. When using a fluorescent dye such as Dextran Texas Red dye, light source 18B can be a halogen light source, and a motorized filter wheel having a plurality of filter elements can be used to provide filtered light at a desired excitation wavelength range of 570 nm plus or minus 20 nm to excite the Dextran Texas Red dye. The respective light sources can be controlled by an electronic shutter in the 570 nm light path, or digital modulation of the laser diodes to allow synchronization of illumination with the filter elements, tunable filter, and image acquisition.
# At process block 34, a second optical contrast substance is introduced or activated in the mouse. For example, a dye such as an ICG dye or a Dextran Texas Red dye can be used and can be injected into the tail vein of an anesthetized mouse. ICG dye is a good choice because it is widely available, clinically approved, and it excites and emits in the near infra-red (NIR) portion of the spectrum, which is advantageous in that light scatter is lower and penetration is higher at NIR wavelengths. In one embodiment, a dye consisting of 0.05 ml of 260 uM ICG dye (Cardiogreen, Fluka) is used. In another embodiment, […] of 360 uM of Dextran Texas Red dye (70,000 MW, Invitrogen) can be used.
# At process block 38, a time series of anatomical image data sets of the second optical contrast substance is acquired using the optical detector, preferably while the animal is in the same desired arrangement. This should preferably be performed right after the second optical contrast is introduced. If the second optical contrast agent is a fluorescent dye, a light source having the appropriate spectral characteristics is applied to excite the fluorescent dye. […]
smiles,measurement,setting,value
"CC1(C)C(/C=C/C=C/C=C/C=C2\N(CCCCS(=O)(=O)O)c3ccc4ccccc4c3C2(C)C)=[N+](CCCCS(=O)(=O)[O-])c2ccc3ccccc3c21 [ICG, indocyanine green]",uptake by adipose tissue,"mouse, longer timescales (25 minutes), preliminary data","late uptake by adipose tissue, remaining high after 25 minutes"
same,uptake by the liver,"mouse, longer timescales, preliminary data",rapid and sustained uptake by the liver
same,distribution of dye in the body,"prone mouse, by 117 seconds after injection",distributed fairly diffusely throughout the mouse
same,"fluorescence signal, next organ distribution","prone mouse, tail vein injection, early images (first 15 seconds), after the lung phase","bright signal is seen in the brain, kidneys, spleen and spine"
same,"fluorescence signal, initial organ distribution","prone mouse, tail vein injection, early images (first 15 seconds), initial circulation",initially the lungs are bright
